According to patent publication US6989448B2, “Heteroaryl alkyl alpha substituted peptidylamine calcium channel blockers” (priority 1998, dated 2006):
Structures can show the parent of a compound that is named as a salt. Each block holds one compound with its values, some of them ahead of it.

Legend:
N-type Ca2+ channel = biological target: T1, N-type Ca2+ channel (Homo sapiens, UniProt Q00975); experiment: Measurement of N-type Ca2+ channel blocking potencies in IMR-32 cells using the fluorescent Ca2+ indicator Indo-1; type: cell-based; conditions: for IMR-32 % of Blockade @ μM: 5 μM nitrendipine; for IC50: K+-stimulated Ca2+ flux, 5 μM nitrendipine to block L-type channels, some values marked (est.)
T1 construct: host or cells: IMR-32 cells, differentiated with dibutyryl cAMP and bromodeoxyuridine
Procedure: Measurement of N-type Ca^2+ Channel Blocking Potencies of Compounds in IMR-32 Cells Using the Fluorescent Ca^2+ Indicator Indo-1
IMR-32 cells are a human tumoral cell line of neural origin. […] Calcium flux into these cells may be induced by stimulation with elevated potassium concentrations. The L-channel component of calcium flux may be blocked by adding 5 μM nitrendipine. The remaining component of calcium entry into the IMR-32 cells is due to calcium flux through N-type calcium channels. Intracellular calcium concentrations are measured using the fluorescent calcium indicator Indo-1. The effect of drug concentration on calcium uptake is studied.
The IMR-32 cell line was obtained from the American Type Culture Collection (Rockville, Md.). Cells were grown in Eagle's Minimum Essential Medium with Earle's salts supplemented with 10% fetal bovine serum, 2 mM L-Gln and antibiotic/antimycotic mixture (Gibco). At approximately 80% confluency, differentiation was induced by the addition of 1 mM dibutyryl cAMP and 2.5 μM bromodeoxyuridine to the medium. After 7 to 13 days of differentiation, cells were detached using 0.5 mM EDTA and loaded with 5 μM Indo-1 acetoxymethyl ester (Molecular Probes, Eugene, Oreg.) at 30° C. for 45 minutes Loaded cells were washed twice, resuspended (˜10^7 cells/mL) in assay buffer (10 mM HEPES/Tris pH 7.4 in Hank's Balanced Salt Solution without bicarbonate or phenol red containing 0.5% bovine serum albumin) and kept on ice until use. Fluorescence measurements were carried out in a Photon Technology International (PTI, South Brunswick, N.J.) Model RF-F3004 spectrofluorometer with dual emission monochromators using excitation at 350 nm and emission at 400 and 490 nm. The instrument was equipped with a thermostated cuvette holder with stirring capabilities, as well as with a computer-controlled pump which allowed for reagent addition during measurement. Instrument control and data collection was done by PTI's OSCAR software running on an IBM compatible computer. Different concentrations of the test compounds (60 μL in dimethyl sulfoxide) were added to 5.94 mL of assay buffer containing approximately 3×10^6 loaded cells, and 5 μM nitrendipine (in 30 μL EtOH) to block L-type Ca^2+ channels. Samples were incubated for 10 minutes at 30° C. and then aliquoted into three 10×10 mm disposable acrylic cuvettes. Emission signals at 400 and 490 nm were acquired from each cuvette at 30° C. for 50 seconds. At 20 seconds after the start of reading, cells were depolarized by the addition of 160 μL of stimulation solution (1 M KCl, 68 mM CaCl2) to the cuvette via the computer-controlled pump. Ratio of dual emission signals (400 nm/490 nm), which is proportional to intracellular Ca^2+ concentration, was plotted against time, and the difference between maximal response after stimulation and basal value (before stimulation) was determined. Values obtained in this way were plotted as a function of drug concentration. IC50 values of test compounds were calculated by fitting a 4-parameter logistic function to the data using the least squares method.

DBA/2 mice = experiment: Audiogenic (sound-induced) seizure test in DBA/2 mice, protection from tonic seizures; type: in vivo; conditions: 30 mg/kg, intravenous, tested 15 or 45 minutes after injection
Procedure: In Vivo Biological Protocol
A compound of the present invention was dissolved in water using 10% (weight/volume) Emulphor (GAF Corp., Wayne, N.J.) surfactant. Substances were administered by intravenous injection into the retro-orbital venous sinus. All testing was performed 15 minutes or 45 minutes after drug injection. All the male mice, 3 to 4 weeks old, were obtained from Jackson Laboratories, Bar Harbour, Me. Immediately before anticonvulsant testing, mice were placed upon a wire mesh, 4 inches square suspended from a steel rod. The square was slowly inverted through 180 degree and mice observed for 30 seconds. Any mouse falling from the wire mesh was scored as ataxia.
Mice were placed into an enclosed acrylic plastic chamber (21 cm height, approximately 30 cm diameter) with a high-frequency speaker (4 cm diameter) in the center of the top lid. An audio signal generator (Protek Model B-810) was used to produce a continuous sinusoidal tone that was swept linearly in frequency between 8 kHz and 16 kHz once each 10 msec. The average sound pressure level (SPL) during stimulation was approximately 100 dB at the floor of the chamber. Mice were placed within the chamber and allowed to acclimatize for 1 minute. DBA/2 mice in the vehicle-treated group responded to the sound stimulus (applied until tonic extension occurred, or for a maximum of 60 sec) with a characteristic seizure sequence consisting of wild running followed by clonic seizures, and later by tonic extension, and finally by respiratory arrest and death in 80% or more of the mice. In vehicle-treated mice, the entire sequence of seizures to respiratory arrest lasts approximately 15 to 20 seconds.
The incidence of all the seizure phases in the drug-treated and vehicle-treated mice was recorded, and the occurrence of tonic seizures were used for calculating anticonvulsant ED50 values by probit analysis. Mice were used only once for testing at each time and dose point.

T1 sequence (Q00975 whole entry): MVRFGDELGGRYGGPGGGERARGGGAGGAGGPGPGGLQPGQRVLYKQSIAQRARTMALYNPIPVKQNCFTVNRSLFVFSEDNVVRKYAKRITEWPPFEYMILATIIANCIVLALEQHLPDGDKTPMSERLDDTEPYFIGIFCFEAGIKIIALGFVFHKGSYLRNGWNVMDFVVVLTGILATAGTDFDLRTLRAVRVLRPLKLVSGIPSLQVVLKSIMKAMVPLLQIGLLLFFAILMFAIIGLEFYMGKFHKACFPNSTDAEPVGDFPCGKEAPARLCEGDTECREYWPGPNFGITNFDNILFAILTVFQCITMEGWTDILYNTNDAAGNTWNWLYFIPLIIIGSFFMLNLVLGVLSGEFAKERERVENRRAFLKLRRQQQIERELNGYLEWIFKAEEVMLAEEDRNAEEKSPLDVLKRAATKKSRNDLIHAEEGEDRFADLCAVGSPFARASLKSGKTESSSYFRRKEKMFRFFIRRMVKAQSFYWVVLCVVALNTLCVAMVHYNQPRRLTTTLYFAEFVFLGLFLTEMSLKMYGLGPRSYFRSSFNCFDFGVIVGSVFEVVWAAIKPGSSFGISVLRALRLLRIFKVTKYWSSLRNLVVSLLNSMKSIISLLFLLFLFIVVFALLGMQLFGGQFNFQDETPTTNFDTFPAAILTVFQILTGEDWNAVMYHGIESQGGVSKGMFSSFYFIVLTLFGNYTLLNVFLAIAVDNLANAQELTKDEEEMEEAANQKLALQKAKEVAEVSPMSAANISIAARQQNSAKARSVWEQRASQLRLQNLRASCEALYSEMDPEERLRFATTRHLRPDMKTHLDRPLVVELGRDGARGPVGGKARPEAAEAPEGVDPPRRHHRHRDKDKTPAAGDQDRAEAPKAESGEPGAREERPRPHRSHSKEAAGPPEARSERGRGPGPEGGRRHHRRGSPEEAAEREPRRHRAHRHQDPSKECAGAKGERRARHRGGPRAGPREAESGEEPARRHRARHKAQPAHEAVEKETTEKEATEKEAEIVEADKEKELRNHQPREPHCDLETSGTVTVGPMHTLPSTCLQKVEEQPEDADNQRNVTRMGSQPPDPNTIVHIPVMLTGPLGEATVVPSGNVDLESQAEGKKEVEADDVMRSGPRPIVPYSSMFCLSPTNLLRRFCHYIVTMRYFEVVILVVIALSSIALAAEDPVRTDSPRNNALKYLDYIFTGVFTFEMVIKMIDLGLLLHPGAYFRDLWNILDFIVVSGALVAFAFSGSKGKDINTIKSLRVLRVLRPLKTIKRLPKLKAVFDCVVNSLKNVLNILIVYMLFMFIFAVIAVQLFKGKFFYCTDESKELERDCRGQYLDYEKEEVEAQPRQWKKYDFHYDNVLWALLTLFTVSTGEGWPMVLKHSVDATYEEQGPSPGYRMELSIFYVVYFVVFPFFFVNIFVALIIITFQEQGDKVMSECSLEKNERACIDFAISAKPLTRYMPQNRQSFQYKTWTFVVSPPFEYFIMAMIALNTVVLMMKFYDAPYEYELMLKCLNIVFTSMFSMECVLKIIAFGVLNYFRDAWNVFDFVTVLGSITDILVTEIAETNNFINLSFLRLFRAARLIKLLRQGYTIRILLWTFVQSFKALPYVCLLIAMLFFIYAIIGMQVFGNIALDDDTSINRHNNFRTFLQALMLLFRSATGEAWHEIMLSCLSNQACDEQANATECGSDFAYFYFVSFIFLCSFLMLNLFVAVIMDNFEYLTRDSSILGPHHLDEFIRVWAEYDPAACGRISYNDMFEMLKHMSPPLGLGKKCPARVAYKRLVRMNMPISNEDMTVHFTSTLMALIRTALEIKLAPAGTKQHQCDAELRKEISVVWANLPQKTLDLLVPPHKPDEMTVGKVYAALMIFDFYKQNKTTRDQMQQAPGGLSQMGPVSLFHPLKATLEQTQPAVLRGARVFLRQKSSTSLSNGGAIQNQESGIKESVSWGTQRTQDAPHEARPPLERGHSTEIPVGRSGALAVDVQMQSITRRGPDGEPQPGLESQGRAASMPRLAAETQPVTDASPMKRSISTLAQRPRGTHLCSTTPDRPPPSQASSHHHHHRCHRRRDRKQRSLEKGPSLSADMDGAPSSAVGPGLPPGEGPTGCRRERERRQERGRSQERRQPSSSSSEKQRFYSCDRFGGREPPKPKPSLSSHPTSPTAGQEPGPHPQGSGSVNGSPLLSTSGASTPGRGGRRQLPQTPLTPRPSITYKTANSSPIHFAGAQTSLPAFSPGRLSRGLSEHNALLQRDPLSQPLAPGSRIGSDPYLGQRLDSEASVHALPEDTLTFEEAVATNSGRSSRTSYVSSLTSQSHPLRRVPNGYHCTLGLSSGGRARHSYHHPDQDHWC
T1 sequence (P54289 25-956 partner limits assumed): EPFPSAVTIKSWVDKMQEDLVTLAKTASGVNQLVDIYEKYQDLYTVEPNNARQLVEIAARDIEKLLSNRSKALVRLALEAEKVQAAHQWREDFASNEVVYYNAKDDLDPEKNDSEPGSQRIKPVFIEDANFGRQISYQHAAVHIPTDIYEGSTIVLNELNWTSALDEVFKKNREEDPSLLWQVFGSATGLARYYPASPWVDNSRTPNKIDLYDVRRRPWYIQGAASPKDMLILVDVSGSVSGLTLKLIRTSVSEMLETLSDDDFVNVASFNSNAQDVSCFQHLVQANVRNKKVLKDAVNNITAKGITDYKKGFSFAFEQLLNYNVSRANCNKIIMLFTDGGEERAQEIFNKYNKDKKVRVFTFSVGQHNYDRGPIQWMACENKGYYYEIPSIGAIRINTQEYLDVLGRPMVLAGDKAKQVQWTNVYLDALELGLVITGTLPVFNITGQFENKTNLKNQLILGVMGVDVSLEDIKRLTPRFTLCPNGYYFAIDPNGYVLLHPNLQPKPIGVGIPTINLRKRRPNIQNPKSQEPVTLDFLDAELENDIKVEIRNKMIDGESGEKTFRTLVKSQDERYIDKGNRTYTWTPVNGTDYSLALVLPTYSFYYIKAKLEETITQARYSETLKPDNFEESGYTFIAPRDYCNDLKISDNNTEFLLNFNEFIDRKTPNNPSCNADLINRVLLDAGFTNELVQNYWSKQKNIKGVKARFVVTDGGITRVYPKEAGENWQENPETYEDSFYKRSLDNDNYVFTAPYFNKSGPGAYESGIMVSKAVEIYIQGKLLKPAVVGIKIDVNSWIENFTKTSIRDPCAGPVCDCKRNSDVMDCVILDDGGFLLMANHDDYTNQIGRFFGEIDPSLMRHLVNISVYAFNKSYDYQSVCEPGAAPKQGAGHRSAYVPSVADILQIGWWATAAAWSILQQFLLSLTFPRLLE
T1 sequence (P54289 957-1103 partner limits assumed): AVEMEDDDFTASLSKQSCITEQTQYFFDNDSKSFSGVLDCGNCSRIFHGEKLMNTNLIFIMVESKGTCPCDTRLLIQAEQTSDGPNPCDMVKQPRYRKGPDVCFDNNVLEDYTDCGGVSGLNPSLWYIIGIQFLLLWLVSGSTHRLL
T1 sequence (P54284 whole entry partner): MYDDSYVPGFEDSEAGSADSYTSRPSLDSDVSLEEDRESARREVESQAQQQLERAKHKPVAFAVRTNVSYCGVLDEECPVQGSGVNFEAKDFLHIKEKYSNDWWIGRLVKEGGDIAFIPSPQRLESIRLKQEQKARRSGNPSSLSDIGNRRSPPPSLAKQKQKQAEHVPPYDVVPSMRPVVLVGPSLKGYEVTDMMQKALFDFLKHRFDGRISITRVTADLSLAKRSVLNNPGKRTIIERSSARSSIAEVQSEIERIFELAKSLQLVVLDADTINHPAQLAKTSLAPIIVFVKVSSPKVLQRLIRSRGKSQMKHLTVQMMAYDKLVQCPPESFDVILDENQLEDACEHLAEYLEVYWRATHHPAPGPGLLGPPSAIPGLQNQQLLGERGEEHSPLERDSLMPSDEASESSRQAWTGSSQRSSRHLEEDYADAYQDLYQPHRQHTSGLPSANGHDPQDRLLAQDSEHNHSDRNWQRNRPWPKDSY

SMILES: CC(C)(C)NC(=O)[C@H](Cc1ccc(OCc2ccccc2)cc1)NC(=O)[C@H](Cc1c[nH]cn1)NCC1CCCCC1 (as salt: salt) [Example 8, [S—(R*,R*)]—N-[2-(4-Benzyloxy-phenyl)-1-tert-butylcarbamoyl-ethyl]-2-(cyclohexylmethyl-amino)-3-(1H-imidazol-4-yl)-propionamide]
melting point: 163 to 165 °C

SMILES: CC(C)N[C@@H](Cc1c[nH]cn1)C(=O)N[C@@H](Cc1ccc(OCc2ccccc2)cc1)C(=O)NC(C)(C)C (relative stereo) [Example 9, [S—(R*,R*)]N-[2-(4-Benzyloxy-phenyl)-1-tert-butylcarbamoyl-ethyl]-2-(1-methylethyl-amino)-3-(1H-imidazol-4-yl)-propionamide]
IMR-32 % of Blockade @ μM (N-type Ca2+ channel; @ 1 μM): 11%
IMR-32 % of Blockade @ μM (N-type Ca2+ channel; @ 10 μM): 55%

SMILES: CC(C)(C)NC(=O)[C@H](Cc1ccc(OCc2ccccc2)cc1)NC(=O)[C@H](Cc1ccncc1)NC1C=CCCC1 (stereo partly drawn) [Example 2, [S-(R*,R*)]—N-[2-(4-Benzyloxy-phenyl)-1-tert-butylcarbamoyl-ethyl]-2-(cyclohex-2-enylamino)-3-pyridin-4-yl-propionamide]
IC50 (N-type Ca2+ channel): 1.3 µM

SMILES: CC(C)(C)NC(=O)[C@H](Cc1ccc(OCc2ccccc2)cc1)NC(=O)[C@H](Cc1cscn1)NC1CCCCC1 (relative stereo) [Example 7, [S—(R*,R*)]-N-[2-(4-Benzyloxy-phenyl)-1-tert-butylcarbamoyl-ethyl]-2-cyclohexylamino-3-thiazol-4-yl-propionamide]
IMR-32 % of Blockade @ μM (N-type Ca2+ channel; @ 1 μM): 67%
IMR-32 % of Blockade @ μM (N-type Ca2+ channel; @ 10 μM): 95%

SMILES: CC(C)(C)NC(=O)[C@H](Cc1ccc(OCc2ccccc2)cc1)NC(=O)[C@H](Cc1cscn1)NC1C=CCCC1 (stereo partly drawn) [Example 6, [S—(R*,R*)]—N-[2-(4-Benzyloxy-phenyl)-1-tert-butylcarbamoyl-ethyl]-2-(cyclohex-2-enylamino)-3-thiazol-4-yl-propionamide]
IC50 (N-type Ca2+ channel): 1.1 µM

SMILES: CC(C)(C)NC(=O)[C@H](Cc1ccc(OCc2ccccc2)cc1)NC(=O)[C@H](Cc1cccnc1)NC1C=CCCC1 (stereo partly drawn) [Example 4, [S—(R*,R*)]—N-[2-(4-Benzyloxy-phenyl)-1-tert-butylcarbamoyl-ethyl]-2-(cyclohex-2-enylamino)-3-pyridin-3-yl-propionamide]
IC50 (N-type Ca2+ channel): 1 µM
DBA/2 mice % protection (dose) (DBA/2 mice): 60% @ 30 mg/kg

SMILES: CC(C)(C)NC(=O)[C@H](Cc1ccc(OCc2ccccc2)cc1)NC(=O)[C@H](Cc1c[nH]cn1)NCC1CCCCC1 [Example 8, [S—(R*,R*)]—N-[2-(4-Benzyloxy-phenyl)-1-tert-butylcarbamoyl-ethyl]-2-(cyclohexylmethyl-amino)-3-(1H-imidazol-4-yl)-propionamide]
IC50 (N-type Ca2+ channel): 0.67 µM

SMILES: CC(C)(C)NC(=O)[C@H](Cc1ccc(OCc2ccccc2)cc1)NC(=O)[C@H](Cc1cscn1)NC1C=CCCC1 (stereo partly drawn) (as salt: HCl) [Example 6, [S—(R*,R*)]—N-[2-(4-Benzyloxy-phenyl)-1-tert-butylcarbamoyl-ethyl]-2-(cyclohex-2-enylamino)-3-thiazol-4-yl-propionamide]
melting point: 243 to 244 °C

Now from value to compound, other results behind:

IMR-32 % of Blockade @ μM (N-type Ca2+ channel; @ 1 μM): 79%
IMR-32 % of Blockade @ μM (N-type Ca2+ channel; @ 10 μM): 97%
SMILES: CC(C)CCN[C@@H](Cc1cscn1)C(=O)NC(Cc1ccc(OCc2ccccc2)cc1)C(=O)NC(C)(C)C (stereo in doubt) [Example 5, [S—(R*,R*)]—N-[2-(4-Benzyloxy-phenyl)-1-tert-butylcarbamoyl-ethyl]-2-(3-methyl-butylamino)-3-thiazol-4-yl-propionamide]
DBA/2 mice % protection (dose) (DBA/2 mice): 100% @ 30 mg/kg

IC50 (N-type Ca2+ channel): 0.77 µM
SMILES: CC(C)CCN[C@@H](Cc1cccnc1)C(=O)NC(Cc1ccc(OCc2ccccc2)cc1)C(=O)NC(C)(C)C (stereo in doubt) [Example 3, [S-(R*,R*)]—N-[2-(4-Benzyloxy-phenyl)-1-tert-butylcarbamoyl-ethyl]-2-(3-methyl-butylamino)-3-pyridin-3-yl-propionamide]
DBA/2 mice % protection (dose) (DBA/2 mice): 80% @ 30 mg/kg

melting point: 163 to 164 °C
SMILES: CC(C)(C)NC(=O)[C@H](Cc1ccc(OCc2ccccc2)cc1)NC(=O)[C@H](Cc1ccncc1)NC1C=CCCC1 (stereo partly drawn) (as salt: HCl) [Example 2, [S-(R*,R*)]—N-[2-(4-Benzyloxy-phenyl)-1-tert-butylcarbamoyl-ethyl]-2-(cyclohex-2-enylamino)-3-pyridin-4-yl-propionamide]

IC50 (N-type Ca2+ channel): 0.4 µM
SMILES: CC(C)CCN[C@@H](Cc1ccncc1)C(=O)N[C@@H](Cc1ccc(OCc2ccccc2)cc1)C(=O)NC(C)(C)C [Example 1, [S—(R*,R*)]—N-[2-(4-Benzyloxy-phenyl)-1-tert-butylcarbamoyl-ethyl]-2-(3-methyl-butylamino)-3-pyridin-4-yl-propionamide]
